The results in this text go back to patent US11564913B2, “Compositions and methods for treating cancer” (Children's Hospital Medical Center, priority 2019, dated 2023).

pIC50: −log10 of the molar value.

In test [1] the test system is active Rac (Rac-GTP) in p190-BCR-ABL Ba/F3 cells. The test can be described thus: Active GTPase pull-down (GST-PAK-GBD). It counts as cell-based, murine. As for the experimental part: (§1) FIG. 13: IODVA1 decreases Rac activation and signaling. (A) Ba/F3 cells expressing p190-BCR-ABL1 were treated with IODVA1 (3 μM) as indicated and levels of active Rac (Rac-GTP) were assessed by pull-down using GST-PAK-GBD, followed by immunoblotting (upper panel) and densitometric quantification (lower panel). (B) Flow-cytometry analysis of pJNK, pS6, p4EBP, pPAK1, and pAKT of Ba/F3 cells expressing Mieg3 empty vector (light and dark blue) or p190-BCR-ABL1 (light and dark salmon) and treated with vehicle control or IODVA1 (3 μM) for 30 min. (C) Representative histogram data of the cell cycle analysis of Ba/F3 cells expressing p190-BCR-ABL and treated with vehicle control or IODVA1 (1, 3, and 10 μM) for 20 h. (D) Quantification of the average number of colonies of bone marrow wild-type (black) and Rac1^Δ/Δ+Rac2^−/− (red) p190-BCR-ABL1 leukemic cells treated with vehicle control or IODVA1 (IO1, 1 μM). ns—not significant, * p<0.05, ** p<0.01, *** p<0.001. (E) As in FIG. 13A, but cells were incubated for a fixed amount of time (1 h) at the indicated IODVA1 concentrations. (F) Ba/F3 cells expressing p190-BCR-ABL1 were treated with IODVA1 (3 μM) and lysed at the indicated times. Cell lysates were separated on SDS-PAGE and immunoblotted for pPAK(T423), pBAD(S136), and BAD. (G) Ba/F3 cells expressing p190-BCR-ABL1 were treated with IODVA1 (3 μM) and levels of active Cdc42 (Cdc42-GTP) and Rho (Rho-GTP) were assessed by pull-down at the indicated times using GST-PAK-GBD and GST-Rhotekin respectively, followed by immunoblotting (left panel) and densitometric quantification (right panel). (H) Morphology of GFP^+ leukemic colonies (left panel). […]
(§2) Having shown that IODVA1 prevents formation of F-actin suprastructures, such as lamellipodia and circular dorsal ruffles, within minutes of cell incubation (FIGS. 5A-5B and Gasilina et al., 2020) we focused on Rac. […] We thus tested if IODVA1 inhibits Rac activation and measured levels of Rac-GTP during treatment using PAK-GBD (GTPase-binding domain). […]

Test [2] deals with active Cdc42 in p190-BCR-ABL Ba/F3 cells. The test can be described thus: Active GTPase pull-down (GST-PAK-GBD). In kind it is cell-based, murine. As to conditions: 3 μM. As for the experimental part:
as §1, §2

Test [3] relates to murine p190-BCR-ABL leukemic progenitor cells (EGFP+/B220dim). The test can be described thus: Cell cycle analysis, BrdU incorporation and flow cytometry. Particulars: for percentage of cells in the G2+M phases: 20 h (SD, N=3). In kind it is cell-based. How it is done: FIG. 13: IODVA1 decreases Rac activation and signaling. (A) Ba/F3 cells expressing p190-BCR-ABL1 were treated with IODVA1 (3 μM) as indicated and levels of active Rac (Rac-GTP) were assessed by pull-down using GST-PAK-GBD, followed by immunoblotting (upper panel) and densitometric quantification (lower panel). (B) Flow-cytometry analysis of pJNK, pS6, p4EBP, pPAK1, and pAKT of Ba/F3 cells expressing Mieg3 empty vector (light and dark blue) or p190-BCR-ABL1 (light and dark salmon) and treated with vehicle control or IODVA1 (3 μM) for 30 min. (C) Representative histogram data of the cell cycle analysis of Ba/F3 cells expressing p190-BCR-ABL and treated with vehicle control or IODVA1 (1, 3, and 10 μM) for 20 h. (D) Quantification of the average number of colonies of bone marrow wild-type (black) and Rac1^Δ/Δ+Rac2^−/− (red) p190-BCR-ABL1 leukemic cells treated with vehicle control or IODVA1 (IO1, 1 μM). ns—not significant, * p<0.05, ** p<0.01, *** p<0.001. (E) As in FIG. 13A, but cells were incubated for a fixed amount of time (1 h) at the indicated IODVA1 concentrations. (F) Ba/F3 cells expressing p190-BCR-ABL1 were treated with IODVA1 (3 μM) and lysed at the indicated times. Cell lysates were separated on SDS-PAGE and immunoblotted for pPAK(T423), pBAD(S136), and BAD. (G) Ba/F3 cells expressing p190-BCR-ABL1 were treated with IODVA1 (3 μM) and levels of active Cdc42 (Cdc42-GTP) and Rho (Rho-GTP) were assessed by pull-down at the indicated times using GST-PAK-GBD and GST-Rhotekin respectively, followed by immunoblotting (left panel) and densitometric quantification (right panel). (H) Morphology of GFP^+ leukemic colonies (left panel). Western blot analysis of Rac1 and Rac2 protein expression in Rac1^Δ/Δ+Rac2^−/− cells post poly-I:C injections (right panel). (I) Intrinsic (blue line) and p50GAP-stimulated GTP-hydrolysis reaction in the presence (red line) or absence (black line) of IODVA1. (J) Sedimentation assay of liposomal Rac1-GDP in the presence of IODVA1 (2 μM). Rac1 was visualized by immunoblotting from pellet (p) and soluble (s) fractions. (K) Stopped-flow measurement of GDI (10 μM) interaction with fluorescently-labelled Rac1 in the absence (black line) or presence (orange line) of IODVA1.
To further test this hypothesis, we analyzed the cell cycle of murine p190-BCR-ABL leukemic progenitor cells (EGFP^+/B220^dim) incubated with vehicle control or IODVA1 (1-10 μM) for 20 h, followed by in vitro BrdU incorporation and flow cytometry analysis (FIG. 13C). […] It increased the percentage of cells in the G2+M phases from 7±1% (SD, N=3) in the presence of vehicle control to 22±6.6, 32±3, and 36±7% (SD, N=3) at 1, 3, and 10 μM, respectively. At 1 μM, it reduced the S-phase 8-fold (p=0.0002) and increased apoptosis by at least 5.3-times (p=0.007). Therefore, IODVA1 induces a G2/M arrest.
Cell cycle was analyzed by using in vitro incorporation of 5-Bromo-2-deoxyuridine using Brdu Flow kit (BD Pharmingen, Cat #552598). Briefly, mice leukemic progenitors were incubated with […] BrdU solution for 45 minutes, cells were further fixed and permeabilized. DNAse treatment was done according to the instructions and stained with anti BrdU and apoptosis was analyzed by 7-AAD staining through flow cytometry analysis.

In the case of `OC1(c2ccccn2)N=C(Nc2nc3ccccc3[nH]2)N=C1c1ccccn1` (stereo not drawn) [IODVA1, (Z)-2-((1H-benzo[d]imidazol-2-yl)imino)-4,5-di(pyridin-2-yl)-2,5-dihydro-1H-imidazol-5-ol], the “decrease in the levels of active Rac” value in test [1] (3 μM, 10-15 minutes post incubation) is listed as 70%. Besides, in test [1] (Mus musculus, BaF3, 1 h, read-out: IC50, Rac activation), the pIC50 is 6.00. The “effect on active Cdc42” value in test [2] is on record as “less effective”. The “percentage of cells in the G2+M phases” value in test [3] (1 μM, vehicle 7±1%) turned out to be 22±6.6%; in test [3] (3 μM) it was 32±3%; in test [3] (10 μM) it was 36±7%. Moreover, in test [3] (1 μM, p=0.0002), the “reduction of the S-phase” value stood at 8 fold. For the same compound, in test [3] (1 μM, p=0.007), the increase in apoptosis result is recorded as “at least 5.3 times”. In addition, the “G0+G1 phase” value in test [3] (1-10 μM, 20 h) is “did not affect”.
